ChEMBL document CHEMBL4196079, “Molecular interaction of novel benzothiazolyl triazolium analogues with calf thymus DNA and HSA-their biological investigation as potent antimicrobial agents” (Eur J Med Chem, 2018)
Values after ≈ are worked out from the molar mass of the structure shown.

Key:
Staphylococcus aureus [1] = assay: Antibacterial activity against methicillin-resistant Staphylococcus aureus N315 after 24 hrs by NCCLS micro broth dilution method; type: functional; settings: N315, 24 h
Staphylococcus aureus [2] = assay: Antibacterial activity against Staphylococcus aureus ATCC 25923 after 24 hrs by NCCLS micro broth dilution method; type: functional; settings: ATCC 25923, 24 h
Bacillus subtilis = assay: Antibacterial activity against Bacillus subtilis ATCC 21216 after 24 hrs by NCCLS micro broth dilution method; type: functional; settings: ATCC 21216, 24 h
Micrococcus luteus = assay: Antibacterial activity against Micrococcus luteus ATCC 4698 after 24 hrs by micro broth dilution method; type: functional; settings: ATCC 4698, 24 h
Escherichia coli [3] = assay: Antibacterial activity against Escherichia coli DH52 after 24 hrs by NCCLS micro broth dilution method; type: functional; settings: DH52, 24 h
Escherichia coli [4] = assay: Antibacterial activity against Escherichia coli JM109 after 24 hrs by NCCLS micro broth dilution method; type: functional; settings: JM109, 24 h
Shigella dysenteriae = assay: Antibacterial activity against Shigella dysenteriae after 24 hrs by NCCLS micro broth dilution method; type: functional
Pseudomonas aeruginosa = assay: Antibacterial activity against Pseudomonas aeruginosa ATCC 27853 after 24 hrs by NCCLS micro broth dilution method; type: functional; settings: ATCC 27853, 24 h
Salmonella typhi = assay: Antibacterial activity against Salmonella typhi after 24 hrs by NCCLS micro broth dilution method; type: functional, Salmonella enterica subsp. enterica serovar Typhi; settings: Salmonella enterica
Bacillus = assay: Antibacterial activity against Bacillus proteus ATCC 13315 after 24 hrs by NCCLS micro broth dilution method; type: functional; settings: ATCC 13315, 24 h
Candida albicans = assay: Antifungal activity against Candida albicans ATCC 76615 after 24 hrs by NCCLS micro broth dilution method; type: functional; settings: ATCC 76615, 24 h
Pichia norvegensis = assay: Antifungal activity against Candida mycoderma after 24 hrs by NCCLS micro broth dilution method; type: functional
Cyberlindnera jadinii = assay: Antifungal activity against Candida utilis after 24 hrs by NCCLS micro broth dilution method; type: functional; settings: Williopsis jadinii
Aspergillus flavus = assay: Antifungal activity against Aspergillus flavus after 24 hrs by NCCLS micro broth dilution method; type: functional
Saccharomyces cerevisiae = assay: Antifungal activity against Saccharomyces cerevisiae after 24 hrs by NCCLS micro broth dilution method; type: functional

SMILES	MIC (Staphylococcus aureus [1]) [µg/mL]	MIC (Staphylococcus aureus [2]) [µg/mL]	MIC (Bacillus subtilis) [µg/mL]	MIC (Micrococcus luteus) [µg/mL]	MIC (Escherichia coli [3]) [µg/mL]	MIC (Escherichia coli [4]) [µg/mL]	MIC (Shigella dysenteriae) [µg/mL]	MIC (Pseudomonas aeruginosa) [µg/mL]	MIC (Salmonella typhi) [µg/mL]	MIC (Bacillus) [µg/mL]	MIC (Candida albicans) [µg/mL]	MIC (Pichia norvegensis) [µg/mL]	MIC (Cyberlindnera jadinii) [µg/mL]	MIC (Aspergillus flavus) [µg/mL]	MIC (Saccharomyces cerevisiae) [µg/mL]
Fc1ccc(Cn2cc(COCc3c(-c4ccccc4)nc4sc5ccccc5n34)nn2)cc1	64 (≈ 136 µM)	128 (≈ 273 µM)	128 (≈ 273 µM)	128 (≈ 273 µM)	128 (≈ 273 µM)	128 (≈ 273 µM)	128 (≈ 273 µM)	128 (≈ 273 µM)	128 (≈ 273 µM)	128 (≈ 273 µM)	32 (≈ 68.2 µM)	32 (≈ 68.2 µM)	16 (≈ 34.1 µM)	256 (≈ 545 µM)	64 (≈ 136 µM)
CCCCCCCn1cc(COCc2c(-c3ccccc3)nc3sc4cc(OCC)ccc4n23)nn1	64 (≈ 127 µM)	128 (≈ 254 µM)	128 (≈ 254 µM)	128 (≈ 254 µM)	128 (≈ 254 µM)	64 (≈ 127 µM)	128 (≈ 254 µM)	128 (≈ 254 µM)	128 (≈ 254 µM)	128 (≈ 254 µM)	32 (≈ 63.5 µM)	32 (≈ 63.5 µM)	64 (≈ 127 µM)	128 (≈ 254 µM)	64 (≈ 127 µM)
CCOc1ccc2c(c1)sc1nc(-c3ccccc3)c(COCc3cn(Cc4cccc(Cl)c4)nn3)n12	128 (≈ 241 µM)	128 (≈ 241 µM)	64 (≈ 121 µM)	128 (≈ 241 µM)	64 (≈ 121 µM)	128 (≈ 241 µM)	64 (≈ 121 µM)	64 (≈ 121 µM)	16 (≈ 30.2 µM)	512 (≈ 966 µM)	32 (≈ 60.4 µM)	32 (≈ 60.4 µM)	32 (≈ 60.4 µM)	128 (≈ 241 µM)	64 (≈ 121 µM)
CCCCCn1cc(COCc2c(-c3ccccc3)nc3sc4ccccc4n23)nn1	8 (≈ 18.5 µM)	64 (≈ 148 µM)	64 (≈ 148 µM)	128 (≈ 297 µM)	32 (≈ 74.1 µM)	64 (≈ 148 µM)	4 (≈ 9.27 µM)	128 (≈ 297 µM)	4 (≈ 9.27 µM)	64 (≈ 148 µM)	32 (≈ 74.1 µM)	16 (≈ 37.1 µM)	8 (≈ 18.5 µM)	256 (≈ 593 µM)	32 (≈ 74.1 µM)
Clc1cccc(Cn2cc(COCc3c(-c4ccccc4)nc4sc5ccccc5n34)nn2)c1	32 (≈ 65.8 µM)	64 (≈ 132 µM)	32 (≈ 65.8 µM)	32 (≈ 65.8 µM)	64 (≈ 132 µM)	64 (≈ 132 µM)	32 (≈ 65.8 µM)	32 (≈ 65.8 µM)	64 (≈ 132 µM)	64 (≈ 132 µM)	8 (≈ 16.5 µM)	16 (≈ 32.9 µM)	32 (≈ 65.8 µM)	128 (≈ 263 µM)	64 (≈ 132 µM)
CCOc1ccc2c(c1)sc1nc(-c3ccccc3)c(COCc3cn(Cc4ccccc4F)nn3)n12	128 (≈ 249 µM)	128 (≈ 249 µM)	256 (≈ 498 µM)	128 (≈ 249 µM)	128 (≈ 249 µM)	128 (≈ 249 µM)	64 (≈ 125 µM)	128 (≈ 249 µM)	128 (≈ 249 µM)	64 (≈ 125 µM)	32 (≈ 62.3 µM)	32 (≈ 62.3 µM)	16 (≈ 31.2 µM)	128 (≈ 249 µM)	64 (≈ 125 µM)
CCOc1ccc2c(c1)sc1nc(-c3ccccc3)c(COCc3cn(Cc4ccc(Cl)cc4Cl)nn3)n12	64 (≈ 113 µM)	64 (≈ 113 µM)	32 (≈ 56.7 µM)	64 (≈ 113 µM)	64 (≈ 113 µM)	64 (≈ 113 µM)	32 (≈ 56.7 µM)	32 (≈ 56.7 µM)	64 (≈ 113 µM)	16 (≈ 28.3 µM)	1 (≈ 1.77 µM)	4 (≈ 7.09 µM)	8 (≈ 14.2 µM)	64 (≈ 113 µM)	32 (≈ 56.7 µM)
CCOc1ccc2c(c1)sc1nc(-c3ccccc3)c(COCc3cn(Cc4ccccc4Cl)nn3)n12	128 (≈ 241 µM)	64 (≈ 121 µM)	128 (≈ 241 µM)	128 (≈ 241 µM)	128 (≈ 241 µM)	128 (≈ 241 µM)	128 (≈ 241 µM)	64 (≈ 121 µM)	16 (≈ 30.2 µM)	512 (≈ 966 µM)	8 (≈ 15.1 µM)	32 (≈ 60.4 µM)	32 (≈ 60.4 µM)	128 (≈ 241 µM)	64 (≈ 121 µM)
CCn1cc(C(=O)O)c(=O)c2cc(F)c(N3CCNCC3)cc21 [NORFLOXACIN]	8 (≈ 25.1 µM)	2 (≈ 6.26 µM)	4 (≈ 12.5 µM)	2 (≈ 6.26 µM)	1 (≈ 3.13 µM)	1 (≈ 3.13 µM)	16 (≈ 50.1 µM)	16 (≈ 50.1 µM)	4 (≈ 12.5 µM)	8 (≈ 25.1 µM)	–	–	–	–	–
Clc1ccc(Cn2cc(COCc3c(-c4ccccc4)nc4sc5ccccc5n34)nn2)cc1	64 (≈ 132 µM)	64 (≈ 132 µM)	128 (≈ 263 µM)	64 (≈ 132 µM)	64 (≈ 132 µM)	128 (≈ 263 µM)	128 (≈ 263 µM)	128 (≈ 263 µM)	64 (≈ 132 µM)	64 (≈ 132 µM)	32 (≈ 65.8 µM)	32 (≈ 65.8 µM)	64 (≈ 132 µM)	256 (≈ 527 µM)	16 (≈ 32.9 µM)
O=[N+]([O-])c1ccc(Cn2cc(COCc3c(-c4ccccc4)nc4sc5ccccc5n34)nn2)cc1	32 (≈ 64.4 µM)	32 (≈ 64.4 µM)	64 (≈ 129 µM)	64 (≈ 129 µM)	16 (≈ 32.2 µM)	4 (≈ 8.06 µM)	32 (≈ 64.4 µM)	64 (≈ 129 µM)	8 (≈ 16.1 µM)	32 (≈ 64.4 µM)	32 (≈ 64.4 µM)	32 (≈ 64.4 µM)	32 (≈ 64.4 µM)	256 (≈ 516 µM)	32 (≈ 64.4 µM)
OC(Cn1cncn1)(Cn1cncn1)c1ccc(F)cc1F [FLUCONAZOLE]	–	–	–	–	–	–	–	–	–	–	1 (≈ 3.27 µM)	4 (≈ 13.1 µM)	8 (≈ 26.1 µM)	256 (≈ 836 µM)	16 (≈ 52.2 µM)
